Laboratory results as given in the supplement of paper PMC11061612.

What was measured:
Assay in all cases: Bliss excess, mean over the matrix (fraction); higher = more synergy
[1] = system: EB-3 (Burkitt's Lymphoma)
In short: (§1)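 Cell lines in DMEM/F12 or RPMI with 10% FBS were plated in 1536-well plates, held 24 hours at 37°C, 5% CO2, then given two-drug dose matrices for 72 hours (DMSO typically 0.2%). Viability was read by CellTiter-Glo 2.0 luminescence and scaled as inhibition from 0 (vehicle wells) to 1 (blank wells). Combination Emax is the second-highest inhibition in the matrix; Bliss excess is observed combination effect minus expected EA + EB − EA·EB, EA and EB being single-agent effects.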

[2] = system: HTC-C3 (Thyroid Gland Carcinoma)
In short: as §1

[3] = system: AN3-CA (Endometrial Carcinoma)
In short: as §1

[4] = system: RPMI-8866 (Chronic Myelogenous Leukemia)
In short: as §1

ES-2 (Ovarian Carcinoma) = system: ES-2 (Ovarian Carcinoma)
In short: as §1

[5] = system: NCI-H1755 (Lung Adenocarcinoma)
In short: as §1

[6] = system: Calu-6 (Non-Small Cell Lung Carcinoma)
In short: as §1

[7] = system: FLO-1 (Esophageal Adenocarcinoma)
In short: as §1

[8] = system: SK-MM-2 (Plasma Cell Myeloma)
In short: as §1

[9] = system: LAMA-84 (Chronic Myelogenous Leukemia)
In short: as §1

RT4 (Bladder Carcinoma) = system: RT4 (Bladder Carcinoma)
In short: as §1

[10] = system: SJRH30 (Rhabdomyosarcoma)
In short: as §1

HuO-3N1 (Osteosarcoma) = system: HuO-3N1 (Osteosarcoma)
In short: as §1

[11] = system: NCI-H196 (Small Cell Lung Carcinoma)
In short: as §1

786-0 (Kidney Carcinoma) = system: 786-0 (Kidney Carcinoma)
In short: as §1

[12] = system: CML-T1 (Chronic Myelogenous Leukemia)
In short: as §1

[13] = system: NCI-H1563 (Lung Adenocarcinoma)
In short: as §1

[14] = system: SNU-175 (Colorectal Carcinoma)
In short: as §1

[15] = system: PANC-02-03 (Pancreatic Carcinoma)
In short: as §1

| Compound | Bliss excess [1] | Bliss excess [2] | Bliss excess [3] | Bliss excess [4] | Bliss excess (ES-2 (Ovarian Carcinoma)) | Bliss excess [5] | Bliss excess [6] | Bliss excess [7] | Bliss excess [8] | Bliss excess [9] | Bliss excess (RT4 (Bladder Carcinoma)) | Bliss excess [10] | Bliss excess (HuO-3N1 (Osteosarcoma)) | Bliss excess [11] | Bliss excess (786-0 (Kidney Carcinoma)) | Bliss excess [12] | Bliss excess [13] | Bliss excess [14] | Bliss excess [15] |
| --- | --- | --- | --- | --- | --- | --- | --- | --- | --- | --- | --- | --- | --- | --- | --- | --- | --- | --- | --- |
| CN(C)CCCOc1ccc(-c2ccc3ncc4c(c3c2)n(C2CCOCC2)c(=O)n4C)cn1 [AZD0156] + O=C(c1cc(Cc2n[nH]c(=O)c3ccccc23)ccc1F)N1CCN(C(=O)C2CC2)CC1 [Olaparib] (first compound max 3 µM, partner max 3 µM) | 0.0234 | -0.0502 | 0.0263 | 0.0607 | 0.0327 | -0.0055 | 0.0096 | 0.0512 | -0.161 | 0.167 | -0.0044 | 0.0963 | -0.0328 | -0.0505 | 0.0418 | 0.178 | -0.0158 | 0.105 | 0.0278 |
| C=CCn1c(=O)c2cnc(Nc3ccc(N4CCN(C)CC4)cc3)nc2n1-c1cccc(C(C)(C)O)n1 [AZD1775] + C1CN(CCC1(C(=O)N[C@@H](CCO)C2=CC=C(C=C2)Cl)N)C3=NC=NC4=C3C=CN4 [Capivasertib] (first compound max 3 µM, partner max 3 µM) | -0.111 | -0.0653 | 0.0797 | 0.0091 | -0.0209 | -0.0691 | 0.0034 | -0.0228 | -0.0629 | 0.0017 | -0.0355 | -0.0065 | -0.0033 | -0.118 | -0.0169 | -0.0178 | -0.0318 | 0.0244 | -0.018 |
| COc1nnc2ccc(N3CCC(c4ccc(OCCN5CCN(C)C(=O)[C@H]5C)cc4)CC3)nn12 [AZD5153] + C=CCn1c(=O)c2cnc(Nc3ccc(N4CCN(C)CC4)cc3)nc2n1-c1cccc(C(C)(C)O)n1 [AZD1775] (first compound max 1 µM, partner max 1 µM) | -0.114 | -0.033 | -0.0624 | -0.0864 | -0.0435 | -0.0088 | -0.0511 | 0.0001 | -0.0484 | -0.0311 | -0.0064 | -0.019 | -0.0584 | -0.0574 | -0.0163 | -0.116 | 0.0474 | -0.0647 | -0.0823 |
| COc1nnc2ccc(N3CCC(c4ccc(OCCN5CCN(C)C(=O)[C@H]5C)cc4)CC3)nn12 [AZD5153] + CC1(C)CCC(CN2CCN(c3ccc(C(=O)NS(=O)(=O)c4ccc(NCC5CCOCC5)c([N+](=O)[O-])c4)c(Oc4cnc5[nH]ccc5c4)c3)CC2)=C(c2ccc(Cl)cc2)C1 [Venetoclax] (first compound max 1 µM, 7x7, partner max 1 µM) | 0.0042 | -0.0648 | -0.0347 | -0.0979 | -0.0677 | -0.0416 | -0.0949 | -0.005 | -0.0111 | -0.0361 | -0.019 | -0.0536 | -0.0576 | -0.0351 | -0.0762 | 0.0479 | -0.0496 | -0.0392 | -0.0263 |
| COc1nnc2ccc(N3CCC(c4ccc(OCCN5CCN(C)C(=O)[C@H]5C)cc4)CC3)nn12 [AZD5153] + CCN(CCO)CCCOc1ccc2c(Nc3cc(CC(=O)Nc4cccc(F)c4)[nH]n3)ncnc2c1 [AZD2811] (first compound max 1 µM, 7x7, partner max 1 µM) | -0.0701 | -0.05 | -0.0375 | 0.0254 | 0.0089 | -0.0058 | -0.0563 | -0.0165 | -0.0366 | 0.0006 | -0.0391 | 0.109 | -0.0705 | -0.0285 | -0.0274 | -0.0571 | -0.0508 | -0.112 | -0.0809 |
| COc1nnc2ccc(N3CCC(c4ccc(OCCN5CCN(C)C(=O)[C@H]5C)cc4)CC3)nn12 [AZD5153] + C[C@@H]1COCCN1C2=NC(=NC(=C2)C3(CC3)[S@](=N)(=O)C)C4=C5C=CNC5=NC=C4 [AZD6738] (first compound max 1 µM, 7x7, partner max 10 µM) | -0.104 | -0.0187 | -0.0311 | -0.0364 | 0.0316 | 0.0198 | -0.0567 | 0.0257 | -0.0831 | 0.0202 | 0.0449 | 0.0588 | 0.0085 | 0.036 | 0.0479 | -0.0011 | 0.0203 | 0.0289 | -0.0366 |
| COc1nnc2ccc(N3CCC(c4ccc(OCCN5CCN(C)C(=O)[C@H]5C)cc4)CC3)nn12 [AZD5153] + Cc1c2c(nn1C)CSCc1cc(n(C)n1)CSc1cc(c3ccccc3c1)OCCCc1c(C(=O)O)n(C)c3c-2c(Cl)ccc13 [AZD5991] (first compound max 1 µM, 7x7, partner max 1 µM) | -0.0048 | -0.0441 | -0.0205 | -0.0361 | -0.0534 | -0.0785 | -0.131 | -0.0352 | -0.0156 | 0.005 | 0.0009 | 0.0045 | -0.0118 | 0.0074 | -0.0166 | 0.0065 | 0.0341 | 0.0113 | -0.0493 |
| COc1nnc2ccc(N3CCC(c4ccc(OCCN5CCN(C)C(=O)[C@H]5C)cc4)CC3)nn12 [AZD5153] + Cn1cnc2c(F)c(Nc3ccc(Br)cc3Cl)c(C(=O)NOCCO)cc21 [Selumetinib] (first compound max 1 µM, 7x7, partner max 10 µM) | -0.0591 | -0.0464 | -0.0484 | -0.0233 | 0.0345 | 0.0053 | 0.0533 | 0.0012 | -0.004 | 0.0757 | 0.0073 | 0.0152 | -0.0026 | -0.0296 | 0.0143 | -0.14 | -0.085 | -0.0007 | 0.0742 |
| NC1(C(=O)N[C@@H](CCO)c2ccc(Cl)cc2)CCN(c2ncnc3[nH]ccc23)CC1 [Capivasertib] + CC(=O)c1c(C)c2cnc(Nc3ccc(N4CCNCC4)cn3)nc2n(C2CCCC2)c1=O [Palbociclib] (first compound max 10 µM, 7x7, partner max 10 µM) | -0.0328 | 0.0437 | -0.0282 | 0.0215 | 0.0008 | 0.0036 | 0.0488 | -0.0218 | -0.0005 | 0.0059 | 0.0114 | -0.0084 | -0.105 | -0.0706 | 0.0245 | 0.0054 | -0.0456 | -0.0442 | -0.0351 |
| NC1(C(=O)N[C@@H](CCO)c2ccc(Cl)cc2)CCN(c2ncnc3[nH]ccc23)CC1 [Capivasertib] + CC(C)n1c(=O)n(C)c2cnc3cc(F)c(-c4ccc(OCCCN5CCCCC5)nc4)cc3c21 [AZD1390] (first compound max 10 µM, 7x7, partner max 0.3 µM) | 0.0022 | -0.0216 | -0.0057 | 0.0503 | -0.0648 | -0.0407 | -0.0391 | -0.0398 | -0.115 | -0.0119 | -0.0651 | -0.0373 | -0.101 | -0.0439 | -0.0997 | 0.003 | 0.0016 | -0.0346 | -0.013 |
| NC1(C(=O)N[C@@H](CCO)c2ccc(Cl)cc2)CCN(c2ncnc3[nH]ccc23)CC1 [Capivasertib] + CCN(CCO)CCCOc1ccc2c(Nc3cc(CC(=O)Nc4cccc(F)c4)[nH]n3)ncnc2c1 [AZD2811] (first compound max 10 µM, 7x7, partner max 1 µM) | 0.0152 | -0.015 | 0.0151 | 0.0469 | -0.0018 | -0.0289 | -0.0009 | -0.0049 | -0.0412 | 0.0341 | -0.0039 | 0.0224 | -0.0379 | -0.0276 | -0.0352 | -0.0597 | 0.0242 | 0.0058 | -0.0261 |
| NC1(C(=O)N[C@@H](CCO)c2ccc(Cl)cc2)CCN(c2ncnc3[nH]ccc23)CC1 [Capivasertib] + COc1nnc2ccc(N3CCC(c4ccc(OCCN5CCN(C)C(=O)[C@H]5C)cc4)CC3)nn12 [AZD5153] (first compound max 10 µM, 7x7, partner max 1 µM) | -0.0529 | 0.0265 | 0.0778 | -0.0511 | 0.0199 | -0.0278 | -0.0081 | 0.0115 | -0.107 | -0.0038 | -0.0021 | 0.0117 | 0.0531 | 0.0227 | 0.0014 | -0.0125 | -0.0218 | -0.055 | 0.0132 |
| NC1(C(=O)N[C@@H](CCO)c2ccc(Cl)cc2)CCN(c2ncnc3[nH]ccc23)CC1 [Capivasertib] + C[C@@H]1COCCN1C2=NC(=NC(=C2)C3(CC3)[S@](=N)(=O)C)C4=C5C=CNC5=NC=C4 [AZD6738] (first compound max 10 µM, 7x7, partner max 10 µM) | -0.0579 | -0.0323 | -0.0526 | -0.0323 | -0.0716 | -0.0244 | -0.0777 | -0.0933 | -0.0164 | 0.0117 | -0.022 | -0.0324 | -0.11 | -0.0265 | -0.0708 | -0.0774 | -0.0357 | -0.0099 | -0.004 |
| CS(=O)(=O)CCNCc1ccc(-c2ccc3ncnc(Nc4ccc(OCc5cccc(F)c5)c(Cl)c4)c3c2)o1 [Lapatinib] + NC1(c2ccc(-c3nc4ccn5c(=O)[nH]nc5c4cc3-c3ccccc3)cc2)CCC1 [MK-2206] (first compound max 10 µM, 7x7, partner max 10 µM) | -0.0251 |  |  |  | -0.131 | -0.0085 |  | -0.0401 | 0.0329 | -0.046 |  | 0.0103 | -0.0437 |  |  | -0.016 |  |  | -0.0011 |
| C[C@@H](c1ccc2nccn2c1)n1nnc2ncc(-c3cnn(C)c3)nc21 [Savolitinib] + CN(CC[C@H](CSC1=CC=CC=C1)NC2=C(C=C(C=C2)S(=O)(=O)NC(=O)C3=CC=C(C=C3)N4CCC(CC4)[C@H](C5=CC=CC=C5C6=CC=C(C=C6)Cl)O)S(=O)(=O)C(F)(F)F)CCO [AZD4320] (first compound max 1 µM, 7x7, partner max 1 µM) |  | -0.0215 | -0.0575 | -0.0815 | -0.0383 |  | -0.005 |  |  |  | -0.0284 | -0.0203 | -0.0513 | -0.0847 | -0.0642 |  | -0.0266 | -0.045 |  |
